The values below come from patent US11498920B2, “4-(1H-imidazol-5-yl)-1H-pyrrolo[2, 3-b] pyridines for use in the treatment of leukaemias, lymphomas and solid tumors” (MASARYKOVA UNIVERZITA, priority 2018, dated 2022).

For series [1], the system named is primary CLL cells. Kind of series: Cytotoxicity, TMRE flow cytometry viability, primary CLL cells (Example II.1). Format: cell-based. Particulars: Homo sapiens, CLL cell, 6 hours, TMRE positive cells normalized to control, ratio to PF670462, <1 = higher cytotoxicity than PF670462, read-out: Viability of cells, Compound of formula I (100 μM), relative to PF670462 (100 μM), CLL primary cells. Background: A flow cytometer gives signals particle by particle.

The test system of series [2] is primary CLL cells. Kind of series: Induction of apoptosis, western blotting of cleaved PARP in primary CLL cells. Format: cell-based, human. Conditions: 10 μM, overnight, listed as preparatory example 3. On the technique in general: A western blot detects proteins with antibodies after separation by electrophoresis.
A short description of series [3]: Specificity of cytotoxic activity, TMRE viability, primary nonmalignant control cells (Example II.4). Format: cell-based. Particulars: human, N = 4, read-out: Viability - mean % of control, Primary healthy cells.
For series [4], the system named is primary CLL cells. Description: Specificity of cytotoxic activity, TMRE viability, primary CLL cells (Example II.4). Conditions: for selective toxicity towards cancer cells vs nonmalignant controls (FIG. 4, Table 3): primary CLL cells vs healthy cells.
The test system of series [5] is MDA-MB-231. Kind of series: Cytotoxicity on panel of cell lines, TMRE viability (Example II.2). Format: cell-based. Particulars: Homo sapiens, 24 hours, mean, control = 1, read-out: cell viability relative to control, MDA-MB-231 (breast cancer). The protocol: (§1) The leukemia and lymphoma-derived cell lines [MEC-1 cell line (derived from chronic lymphocytic leukemia—CLL), Nalm-16 (acute lymphocytic leukemia—ALL), K562 (chronic myeloid leukemia—CML), HL-60 (acute myeloid leukemia—AML), Maver-1 and Mino (mantle cell lymphoma—MCL), BL-41 (Burkitt lymphoma—BL), WSU-NHL (follicular lymphoma—FL), SUDHL (diffuse large B-cell lymphoma—DLBCL)], primary CLL cells and nonmalignant control primary cells were cultured in suspension in flasks under the following conditions: RPMI 1640 medium (Hyclone) supplemented with 10% fetal bovine serum (FBS, Gibco) and 1% penicillin/streptomycin (Life Technologies), 37° C., 5% CO2 and 95% relative humidity, with optimal culture cell density 5×10^6 cells/mL in case of primary cells and 0.5-1×10^6 cells/mL in case of cell lines. The adherent cell lines [A375 (derived from malignant melanoma), MDA-MB-231 and MCF-7 (breast cancer), MIA-PA-CA and PANC1 (pancreatic cancer), PC3 (prostate cancer), OVCAR4 (ovarian cancer) and HEPG2 (hepatocellular carcinoma)] were cultured on plates under the same conditions using RPMI1640 or DMEM medium (Gibco) according to instructions provided by the distributor (DSMZ/ATCC).
(§2) The tested cell lines were incubated with inhibitors at 30 μM concentration or corresponding amount of solvent (DMSO, Sigma Aldrich) in standard culture conditions, seeded as 10^5 cells/500 μl per well in a 24-well plate. Experiments were performed in technical duplicates and 2-3 biological repetitions per cell line. Viability of cells was assessed after 24 hours.
(§3) Relative values are presented as a mean value, showing ratio to the effect of control. Relative value <1=lower viability than control condition.

The test system of series [6] is PANC1. The series is described as above. Format: cell-based. Conditions: Homo sapiens, PANC-1, 24 hours, mean, control = 1, read-out: cell viability relative to control, PANC1 (pancreatic cancer). The method, then:
as §1, §2, §3

In series [7] the test system is MCF-7. The series is described as above. Format: cell-based. Particulars: Homo sapiens, MCF7, 24 hours, mean, control = 1, read-out: cell viability relative to control, MCF-7 (breast cancer). The method, then:
as §1, §2, §3

The test system of series [8] is Mino. Described as above. Format: cell-based. Particulars: Homo sapiens, 24 hours, mean, control = 1, read-out: cell viability relative to control, Mino (MCL). The protocol:
as §1, §2, §3

Series [9] has as its system MIA-PA-CA. The description is as above. Format: cell-based. Conditions: Homo sapiens, MIA PaCa-2, 24 hours, mean, control = 1, read-out: cell viability relative to control, MIA-PA-CA (pancreatic cancer). The method, then: as §1, §2, §3
The test system of series [10] is Maver1. The description is as above. Particulars: Homo sapiens, 24 hours, mean, control = 1, read-out: cell viability relative to control, Maver1 (MCL). Format: cell-based. The protocol: as §1, §2, §3
In series [11] the test system is HEPG2. The description is as above. Format: cell-based. Conditions: Homo sapiens, 24 hours, mean, control = 1, read-out: cell viability relative to control, HEPG2 (hepatocellular carcinoma). The protocol:
as §1, §2, §3

Series [12] concerns SUDHL. The series is described as above. Format: cell-based. Conditions: 24 hours, mean, control = 1, read-out: cell viability relative to control, SUDHL (DLBCL). The method, then:
as §1, §2, §3

Series [13] relates to HL60. The series is described as above. Format: cell-based. Conditions: Homo sapiens, HL-60, 24 hours, mean, control = 1, read-out: cell viability relative to control, HL60 (AML). The protocol:
as §1, §2, §3

Series [14] concerns MEC-1. The description is as above. Format: cell-based. Conditions: Homo sapiens, MEC1, 24 hours, mean, control = 1, read-out: cell viability relative to control, MEC-1 (CLL). The method, then: as §1, §2, §3
Series [15] concerns primary CLL. The series is described as above. Format: cell-based. Particulars: Homo sapiens, 24 hours, mean, control = 1, read-out: cell viability relative to control, primary CLL. The protocol:
as §1, §2, §3

The test system of series [16] is K562. The description is as above. Format: cell-based. Particulars: Homo sapiens, 24 hours, mean, control = 1, read-out: cell viability relative to control, K562 (CML). The method, then: as §1, §2, §3
Series [17] deals with BL-41. The series is described as above. Particulars: Homo sapiens, 24 hours, mean, control = 1, read-out: cell viability relative to control, BL-41 (BL). Format: cell-based. The method, then:
as §1, §2, §3

In series [18] the test system is Nalm16. The series is described as above. Format: cell-based. Particulars: 24 hours, mean, control = 1, read-out: cell viability relative to control, Nalm16 (ALL). The method, then: as §1, §2, §3
Series [19] concerns OVCAR4. The description is as above. Format: cell-based. Conditions: Homo sapiens, OVCAR-4, 24 hours, mean, control = 1, read-out: cell viability relative to control, OVCAR4 (ovarian cancer). The protocol: as §1, §2, §3
Series [20] has as its system A375. Described as above. Conditions: Homo sapiens, A-375, 24 hours, mean, control = 1, read-out: cell viability relative to control, A375 (melanoma). Format: cell-based. The method, then:
as §1, §2, §3

In series [21] the test system is Maver-1 cells (mantle cell lymphoma). Description: Cytotoxicity, TMRE flow cytometry viability, Maver-1 cells (Example II.1). Format: cell-based. Conditions: Homo sapiens, Maver1, 24 hours, TMRE positive cells normalized to control, ratio to PF670462, <1 = higher cytotoxicity than PF670462, read-out: Viability of cells, Compound of formula I (100 μM), relative to PF670462 (100 μM), Maver-1 cells (mantle cell lymphoma).

Series [22] relates to PC3. Description: Cytotoxicity on panel of cell lines, TMRE viability (Example II.2). Format: cell-based. Particulars: Homo sapiens, PC-3, 24 hours, mean, control = 1, read-out: cell viability relative to control, PC3 (prostate cancer). The method, then:
as §1, §2, §3

Series [23] concerns WSU-NHL. Described as above. Particulars: Homo sapiens, 24 hours, mean, control = 1, read-out: cell viability relative to control, WSU-NHL (FL). Format: cell-based. The protocol:
as §1, §2, §3

SMILES strings stand for the structures. “Also recorded” adds a separate entry of the source.

For orientation: viability means the share of living cells, or the viability signal relative to a control. As for `Fc1ccc(-c2ncn(C3CCCCC3)c2-c2ccnc3[nH]ccc23)cc1` [Preparative Example 3, 4-(1-cyclohexyl-4-(4-fluorophenyl)-1H-imidazol-5-yl)-1H-pyrrolo[2,3-b]pyridine], the values for the viability at 100 µM in series [1] and in [21] were 30% and 27%, respectively. The “cleaved PARP, marker of apoptosis (FIG. 2)” value in [2] is recorded as “Increased PARP cleavage; also recorded: increase of cleaved PARP”. Also, the viability at 6 h, 30 µM in [3] worked out at 80.9%. The “Viability - mean % of control, Primary CLL” value in series [4] (30 μM, 6 hours, N = 8) is on record as 37.3% (N = 8). Also, the “selective toxicity towards cancer cells vs nonmalignant controls (FIG. 4, Table 3)” value in [4] (30 μM, 6 hours) is “significantly higher cytotoxic effects towards cancer cells than nonmalignant controls”; in series [4] (30 μM, 6 hours, listed as prep. example 3), “selective towards cancer cells”. In series [4] (6 h, indicated doses of inhibitors, listed as preparatory example 3), the “dose-dependent cytotoxic effect / apoptosis of primary CLL cells (FIG. 1)” value is reported as “induced dose-dependently”. In addition, the viability at 30 µM in series [5] worked out at 69%; in series [6], 65%; in series [7], 53%; in series [8], 38%; in series [9], 61%; in series [10], 54%. The viability at 30 µM in [11] came out at 47%; in series [12], 18%; in [13] it was 72%; in series [14], 43%; in [15] it was 69%; in [16] it was 81%. The viability at 30 µM in [17] came out at 17%; in series [18] it was 32%; in [19], 73%; in series [20] it was 64%.
With `Cc1cc2c(-c3c(-c4ccc(F)cc4)ncn3C3CCCCC3)ccnc2[nH]1` [Preparative Example 39, 4-(1-cyclohexyl-4-(4-fluorophenyl)-1H-imidazol-5-yl)-2-methyl-1H-pyrrolo[2,3-b]pyridine], the results for the viability at 100 µM in [1] and in [21] were 10% and 2%, respectively. In addition, the viability at 30 µM is 71% in series [5]; 44% in series [6]; 29% in [22]; 26% in [8]; 56% in series [9]; 2% in [10]. For the same compound, the viability at 30 µM in series [11] turned out to be 55%; in [12] it was 24%; in [13], 62%; in series [14], 22%; in series [15] it was 48%; in series [16], 73%. Moreover, the viability at 30 µM in series [17] came to 10%; in [23] it was 88%; in series [18], 6%; in series [19], 42%; in [20] it was 16%.
On to `Cc1nc(-c2ccc(F)cc2)c(-c2ccnc3[nH]ccc23)n1C1CCCCC1` [Preparative Example 61, 4-(1-cyclohexyl-4-(4-fluorophenyl)-2-methyl-1H-imidazol-5-yl)-1H-pyrrolo[2,3-b]pyridine], for which the viability at 100 µM in series [1] is 35%; in [21], 2%. In addition, the viability at 30 µM in [5] came to 46%; in series [6], 81%; in series [7] it was 39%; in [22], 71%; in series [8], 28%; in series [9] it was 58%. Also, the viability at 30 µM was found to be 52% in series [10]; 60% in [11]; 24% in series [12]; 63% in series [13]; 41% in series [14]; 70% in series [15]. The viability at 30 µM in series [16] was determined as 80%; in [17], 22%; in series [18], 6%; in series [19], 77%; in series [20], 20%.
Consider `Fc1ccc(-c2nc(I)n(C3CCCCC3)c2-c2ccnc3[nH]ccc23)cc1` [Preparative Example 95, 4-(1-cyclohexyl-4-(4-fluorophenyl)-2-iodo-1H-imidazol-5-yl)-1H-pyrrolo[2,3-b]pyridine], for which the values for the viability at 100 µM in series [1] and in series [21] were 2% and 1%, respectively. The viability at 30 µM in series [5] is 2%; in series [6] it was 10%; in series [7] it was 1%; in [22] it was 1%; in series [8], 0%; in series [9] it was 1%. The viability at 30 µM came to 1% in [10]; 5% in series [11]; 0% in [12]; 2% in [13]; 0% in [14]; 2% in series [15]. Further, the viability at 30 µM in [16] came to 1%; in series [17], 0%; in series [23] it was 0%; in [19], 7%; in series [20], 16%.
